Read-outs that look alike come from different tables or passages of the source.
Columns and labels:
[1] = target: TYK2 JH2 domain (Homo sapiens (Human), UniProt P29597); assay: TYK2 JH2 NanoBRET assay; type: binding
Protocol: HEK293T cells were transfected with NanoLuc-TYK2 JH2 Fusion Vector (Promega, customized) using Trans-IT reagent (Mirus, #MIR2700) and incubated for overnight in 37° C. incubator. […] Add 85 µL of cell suspension into white, polypropylene, 96-well plates (Corning, #3600). 90 µL of cells were used for no tracer control samples. 5 µL of diluted NanoBRET K10 tracer (Promega, #CS1810C122) were added to cells to a final concentration of 0.5 µM. Test compounds were diluted into DMSO, and then phenol-free opti-MEM to 10X of final concentration. 10 µL of diluted compounds were added into each well. The cells were incubated with test compound and tracer for 2 hours. 3XNanoBRET® Nano-Glo® Substrate and Extracellular NanoLuc® Inhibitor mixture were prepared and 50 µL of the mixture were added into the wells and mixed. […] NanoBRET signal was determined by using the ratio of acceptor signal and donor signal.

[2] = target: human JAK3 (Homo sapiens (Human), UniProt P52333); assay: JAK3 TR-FRET kinase assay; type: biochemical; conditions: JAK3 0.0125 nM
human JAK3, sequence (P52333 whole entry): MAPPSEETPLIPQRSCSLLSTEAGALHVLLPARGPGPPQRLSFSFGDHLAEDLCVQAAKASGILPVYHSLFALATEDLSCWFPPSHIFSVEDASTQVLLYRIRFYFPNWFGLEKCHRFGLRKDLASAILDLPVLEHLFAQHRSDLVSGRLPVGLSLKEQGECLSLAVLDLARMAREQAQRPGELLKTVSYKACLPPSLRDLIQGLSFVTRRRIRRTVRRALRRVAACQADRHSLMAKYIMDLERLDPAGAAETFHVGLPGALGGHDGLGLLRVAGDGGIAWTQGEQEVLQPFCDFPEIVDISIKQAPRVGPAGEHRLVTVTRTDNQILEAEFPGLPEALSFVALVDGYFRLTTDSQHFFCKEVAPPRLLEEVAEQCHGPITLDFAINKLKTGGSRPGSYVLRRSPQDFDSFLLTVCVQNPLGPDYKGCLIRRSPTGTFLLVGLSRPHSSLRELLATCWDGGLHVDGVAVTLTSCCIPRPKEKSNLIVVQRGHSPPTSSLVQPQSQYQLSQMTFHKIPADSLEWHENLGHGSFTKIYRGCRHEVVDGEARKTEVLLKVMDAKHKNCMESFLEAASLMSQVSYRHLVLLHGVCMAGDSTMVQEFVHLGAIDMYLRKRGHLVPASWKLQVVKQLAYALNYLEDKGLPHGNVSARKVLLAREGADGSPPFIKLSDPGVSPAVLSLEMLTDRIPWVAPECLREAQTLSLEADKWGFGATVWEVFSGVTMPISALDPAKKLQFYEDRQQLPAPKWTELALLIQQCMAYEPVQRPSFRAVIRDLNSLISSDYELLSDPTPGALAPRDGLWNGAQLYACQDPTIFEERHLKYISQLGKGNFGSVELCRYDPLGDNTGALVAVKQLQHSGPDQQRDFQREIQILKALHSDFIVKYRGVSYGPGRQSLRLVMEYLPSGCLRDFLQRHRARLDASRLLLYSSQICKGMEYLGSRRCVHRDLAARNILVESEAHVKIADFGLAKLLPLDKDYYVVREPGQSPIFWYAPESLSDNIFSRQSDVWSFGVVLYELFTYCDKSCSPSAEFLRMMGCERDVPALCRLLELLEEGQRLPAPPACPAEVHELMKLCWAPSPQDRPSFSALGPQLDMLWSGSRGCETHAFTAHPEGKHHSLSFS

[3] = target: human JAK1 (Homo sapiens (Human), UniProt P23458); assay: JAK1 TR-FRET kinase assay; type: biochemical; conditions: TR-FRET, JAK1 2.5 nM
human JAK1, sequence (P23458 whole entry): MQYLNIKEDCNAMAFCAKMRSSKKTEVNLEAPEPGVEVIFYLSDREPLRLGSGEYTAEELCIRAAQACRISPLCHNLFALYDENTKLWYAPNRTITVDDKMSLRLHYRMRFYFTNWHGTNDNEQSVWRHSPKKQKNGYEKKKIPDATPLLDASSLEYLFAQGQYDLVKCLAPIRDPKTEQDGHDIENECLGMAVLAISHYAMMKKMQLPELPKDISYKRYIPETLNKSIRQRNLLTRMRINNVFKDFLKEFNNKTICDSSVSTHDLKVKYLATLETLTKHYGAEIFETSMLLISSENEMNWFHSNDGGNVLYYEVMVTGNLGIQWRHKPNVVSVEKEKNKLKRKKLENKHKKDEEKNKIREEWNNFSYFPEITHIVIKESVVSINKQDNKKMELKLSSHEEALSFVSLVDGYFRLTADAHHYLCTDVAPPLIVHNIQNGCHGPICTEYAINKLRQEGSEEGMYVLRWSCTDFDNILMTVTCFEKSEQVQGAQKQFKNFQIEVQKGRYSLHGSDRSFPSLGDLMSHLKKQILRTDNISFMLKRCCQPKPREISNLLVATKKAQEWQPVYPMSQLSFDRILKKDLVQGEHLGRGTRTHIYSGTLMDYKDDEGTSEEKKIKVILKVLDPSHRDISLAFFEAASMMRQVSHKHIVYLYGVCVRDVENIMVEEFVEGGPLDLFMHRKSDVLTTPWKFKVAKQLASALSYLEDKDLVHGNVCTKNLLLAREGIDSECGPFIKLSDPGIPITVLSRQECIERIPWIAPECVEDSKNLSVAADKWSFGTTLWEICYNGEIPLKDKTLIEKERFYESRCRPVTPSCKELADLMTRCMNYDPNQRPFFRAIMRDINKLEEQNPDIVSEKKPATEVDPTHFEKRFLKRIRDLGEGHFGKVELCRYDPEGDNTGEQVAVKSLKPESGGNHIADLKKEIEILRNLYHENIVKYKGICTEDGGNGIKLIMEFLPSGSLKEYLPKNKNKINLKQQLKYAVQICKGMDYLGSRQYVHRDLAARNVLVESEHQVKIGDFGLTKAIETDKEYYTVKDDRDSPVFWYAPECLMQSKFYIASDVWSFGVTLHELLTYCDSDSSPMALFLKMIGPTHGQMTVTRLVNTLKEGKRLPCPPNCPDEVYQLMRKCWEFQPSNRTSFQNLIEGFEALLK

[4] = target: human JAK2 (Homo sapiens (Human), UniProt O60674); assay: JAK2 TR-FRET kinase assay; type: biochemical; conditions: JAK2 0.025 nM
human JAK2, sequence (O60674 whole entry): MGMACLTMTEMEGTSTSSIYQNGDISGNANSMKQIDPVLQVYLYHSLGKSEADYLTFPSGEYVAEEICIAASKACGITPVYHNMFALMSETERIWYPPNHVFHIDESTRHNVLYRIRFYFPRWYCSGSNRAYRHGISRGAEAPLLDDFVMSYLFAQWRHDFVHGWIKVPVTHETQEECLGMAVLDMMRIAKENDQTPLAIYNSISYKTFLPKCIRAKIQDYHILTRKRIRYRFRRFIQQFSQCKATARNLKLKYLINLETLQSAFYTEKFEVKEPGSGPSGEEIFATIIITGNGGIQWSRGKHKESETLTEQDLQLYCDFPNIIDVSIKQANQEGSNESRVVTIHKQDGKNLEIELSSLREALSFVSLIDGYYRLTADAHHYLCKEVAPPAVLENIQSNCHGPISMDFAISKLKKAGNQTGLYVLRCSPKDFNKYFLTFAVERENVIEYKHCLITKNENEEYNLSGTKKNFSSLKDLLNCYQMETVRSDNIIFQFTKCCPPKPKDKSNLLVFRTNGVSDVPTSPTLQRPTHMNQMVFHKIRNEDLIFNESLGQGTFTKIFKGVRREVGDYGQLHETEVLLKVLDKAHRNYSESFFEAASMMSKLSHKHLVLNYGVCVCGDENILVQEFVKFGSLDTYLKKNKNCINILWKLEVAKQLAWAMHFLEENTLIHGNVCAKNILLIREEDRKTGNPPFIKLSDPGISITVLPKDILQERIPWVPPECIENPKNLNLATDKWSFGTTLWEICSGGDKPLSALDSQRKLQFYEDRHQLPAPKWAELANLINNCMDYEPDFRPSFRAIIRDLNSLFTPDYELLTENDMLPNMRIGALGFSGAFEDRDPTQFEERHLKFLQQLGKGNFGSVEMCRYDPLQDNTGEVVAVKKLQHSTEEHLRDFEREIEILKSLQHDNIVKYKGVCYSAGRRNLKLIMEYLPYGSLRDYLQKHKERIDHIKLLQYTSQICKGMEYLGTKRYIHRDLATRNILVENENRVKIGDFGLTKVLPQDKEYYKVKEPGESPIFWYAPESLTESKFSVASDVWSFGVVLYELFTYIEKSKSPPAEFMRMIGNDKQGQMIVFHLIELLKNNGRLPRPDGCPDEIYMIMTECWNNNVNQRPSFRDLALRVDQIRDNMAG

[5] = HEK293T cells, Table 19, read-out: IC50 (nM), TYK2 activity

TYK2 JH2 domain, sequence (P29597 589-875): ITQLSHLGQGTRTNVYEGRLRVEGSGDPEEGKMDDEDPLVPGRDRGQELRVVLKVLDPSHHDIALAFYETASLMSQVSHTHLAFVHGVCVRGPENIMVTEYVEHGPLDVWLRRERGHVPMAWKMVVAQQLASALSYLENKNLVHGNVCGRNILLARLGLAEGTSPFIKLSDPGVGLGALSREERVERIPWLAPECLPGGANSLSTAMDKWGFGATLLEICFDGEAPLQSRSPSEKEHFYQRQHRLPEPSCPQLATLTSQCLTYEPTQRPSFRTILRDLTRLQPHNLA

Row | IC50 ([1]; Table 20, read-out: TYK2 IC50) [nM] | IC50 [2] [µM] | IC50 [3] [µM] | IC50 [4] [µM] | IC50 [1, 5] [nM] | Structure (SMILES)
1 | < 5 | 0.05 to 0.5 | ≥ 0.5 | ≥ 0.5 | – | [2H]C([2H])([2H])N1CC[C@@H](Oc2ccc(Nc3cc(Nc4cccc(-c5ncn(C)n5)c4OC)c(C(=O)CC)cn3)nc2)C1 [Compound 18X]
2 | 50 to 500 | ≥ 0.5 | ≥ 0.5 | ≥ 0.5 | – | CCC(=O)c1cnc(NC(=O)C2CC2)cc1Nc1cc(CO)cc(-c2ncn(C)n2)c1OC [Compound 25D]
3 | 5 to 50 | ≥ 0.5 | ≥ 0.5 | ≥ 0.5 | – | CCC(=O)c1cnc(Nc2ncc(CS(C)(=O)=O)cc2F)cc1Nc1cccc(-c2ncn(C)n2)c1OC [Compound 13AA]
4 | – | ≥ 0.5 | ≥ 0.5 | ≥ 0.5 | – | CCC(=O)c1cnc(Nc2ccc(S(=O)(=O)N(C)C)cn2)cc1Nc1cccc(-c2ncn(C)n2)c1OC [Compound 13D]
5 | < 5 | 0.05 to 0.5 | ≥ 0.5 | ≥ 0.5 | – | CCC(=O)c1cnc(Nc2ccc([C@H](C)N3CC[C@H](O)C3)cn2)cc1Nc1cccc(-c2ncn(C)n2)c1OC [Compound 9LL]
6 | 5 to 50 | ≥ 0.5 | ≥ 0.5 | ≥ 0.5 | – | CCC(=O)c1cnc(Nc2cnc(CCN(C)C)cn2)cc1Nc1cccc(-c2ncn(C)n2)c1OC [Compound 11I]
7 | 5 to 50 | ≥ 0.5 | ≥ 0.5 | ≥ 0.5 | – | CCC(=O)c1cnc(Nc2cnc(OCCCO)cn2)cc1Nc1cccc(-c2ncn(C)n2)c1OC [Compound 18Q]
8 | 5 to 50 | ≥ 0.5 | ≥ 0.5 | ≥ 0.5 | – | CCC(=O)c1cnc(Nc2cnc(O[C@@H]3CCN(C)C3)cn2)cc1Nc1cccc(-c2ncn(C)n2)c1OC [Compound 18UU]
9 | < 5 | ≥ 0.5 | ≥ 0.5 | ≥ 0.5 | – | CCC(=O)c1cnc(Nc2ccc(-n3ccnc3)cn2)cc1Nc1nccc(-c2ncn(C)n2)c1OC [Compound 15P]
10 | < 5 | ≥ 0.5 | ≥ 0.5 | ≥ 0.5 | – | CCC(=O)c1cnc(Nc2cc(C(C)N)ncn2)cc1Nc1cccc(-c2ncn(C)n2)c1OC (stereo not drawn) [Compound 9OOOO]
11 | 5 to 50 | ≥ 0.5 | ≥ 0.5 | ≥ 0.5 | – | CCC(=O)c1cnc(Nc2cnc(C(N)C(F)(F)F)cn2)cc1Nc1cccc(-c2ncn(C)n2)c1OC (stereo not drawn) [Compound 9TTT]
12 | < 5 | ≥ 0.5 | ≥ 0.5 | ≥ 0.5 | – | CCC(=O)c1cnc(Nc2ccc(CN3CC(OC)C3)cn2)cc1Nc1cccc(-c2ncn(C)n2)c1OC [Compound 9DD]
13 | – | – | – | – | 50 to 500 | COc1c(Nc2cc(NC(=O)CN3CCOCC3)ncc2C(C)=O)cccc1-c1ncn(C)n1 [Compound 1O]
14 | < 5 | ≥ 0.5 | ≥ 0.5 | ≥ 0.5 | – | CCC(=O)c1cnc(Nc2ccc(OC3CN(C)C3)cn2)cc1Nc1cccc(-c2ncn(C)n2)c1OC [Compound 18U]
15 | 5 to 50 | ≥ 0.5 | ≥ 0.5 | ≥ 0.5 | – | CCC(=O)c1cnc(Nc2cnc(OCCN3CC(C#N)C3)cn2)cc1Nc1cccc(-c2ncn(C)n2)c1OC [Compound 18RR]
16 | < 5 | ≥ 0.5 | ≥ 0.5 | ≥ 0.5 | – | CCC(=O)c1cnc(Nc2ccc(C(N)C(F)(F)F)cn2)cc1Nc1cccc(-c2ncn(C)n2)c1OC (stereo not drawn) [Compound 9CC]
17 | 5 to 50 | ≥ 0.5 | ≥ 0.5 | ≥ 0.5 | – | CCC(=O)c1cnc(Nc2cc(C)n([C@H]3C[C@@H](O)C3)n2)cc1Nc1cccc(-c2ncn(C)n2)c1OC [Compound 21DD]
18 | – | – | – | – | < 5 | COc1cccc(Nc2cc(Nc3cccc(-c4ncn(C)n4)c3OC)c(C(C)=O)cn2)n1 [Compound 7K]
19 | – | – | – | – | 50 to 500 | COc1c(Nc2cc(NC(=O)N(C)C)ncc2C(C)=O)cccc1-c1ncn(C)n1 [Compound 1P]
20 | – | – | – | – | < 5 | COc1c(Nc2cc(Nc3ccc(N4CCOCC4)cn3)ncc2C(C)=O)cccc1-c1ncn(C)n1 [Compound 7N]
21 | – | – | – | – | < 5 | COc1c(Nc2cc(Nc3cc(C)c(Cl)cn3)ncc2C(C)=O)cccc1-c1ncn(C)n1 [Compound 7M]
22 | – | – | – | – | 50 to 500 | COc1c(Nc2cc(NC(=O)OC(C)(C)C)ncc2C(C)=O)cccc1-c1ncn(C)n1 [Compound 1D]
23 | – | – | – | – | 5 to 50 | COc1c(Nc2cc(NC(=O)C3CCC3)ncc2C(C)=O)cccc1-c1ncn(C)n1 [Compound 1J]
24 | – | – | – | – | 50 to 500 | COc1c(Nc2cc(Nc3ncccn3)ncc2C(C)=O)cccc1-c1ncn(C)n1 [Compound 7O]
25 | – | – | – | – | < 5 | COc1c(Nc2cc(Nc3cc(C)c(F)cn3)ncc2C(C)=O)cccc1-c1ncn(C)n1 [Compound 7L]
26 | – | – | – | – | 5 to 50 | CCC(=O)Nc1cc(Nc2cccc(-c3ncn(C)n3)c2OC)c(C(C)=O)cn1 [Compound 1H]
27 | – | – | – | – | < 5 | COc1c(Nc2cc(Nc3ccn(C)n3)ncc2C(C)=O)cccc1-c1ncn(C)n1 [Compound 7U]

Row | IC50 ([1]; Table 20, read-out: TYK2 IC50) [nM] | IC50 [2] [µM] | IC50 [3] [µM] | IC50 [4] [µM] | IC50 [1, 5] [nM] | Structure (SMILES)
28 | – | – | – | – | 50 to 500 | COC(=O)Nc1cc(Nc2cccc(-c3ncn(C)n3)c2OC)c(C(C)=O)cn1 [Compound 1N]
29 | – | – | – | – | 50 to 500 | COc1c(Nc2cc(NC(=O)CN(C)C)ncc2C(C)=O)cccc1-c1ncn(C)n1 [Compound 1M]
30 | – | – | – | 0.05 to 0.5 | – | CCC(=O)c1cnc(Nc2cc(C(C)NC)ncn2)cc1Nc1cccc(-c2ncn(C)n2)c1OC (stereo not drawn) [Compound 9PPPP]
31 | – | – | – | – | < 5 | COc1c(Nc2cc(NC(=O)[C@@H]3C[C@@H]3F)ncc2C(C)=O)cccc1-c1ncn(C)n1 [Compound 1K]
32 | – | – | – | – | < 5 | CCOc1ccc(Nc2cc(Nc3cccc(-c4ncn(C)n4)c3OC)c(C(C)=O)cn2)nn1 [Compound 7S]
33 | – | – | – | – | ≥ 500 | COc1c(Nc2cc(Nc3ccc(F)cc3)ncc2C(C)=O)cccc1-c1ncn(C)n1 [Compound 7B]
34 | – | – | – | – | ≥ 500 | COc1c(Nc2cc(N)ncc2C(C)=O)cccc1-c1ncn(C)n1 [Compound 2, 1-(6-amino-4-((2-methoxy-3-(1-methyl-1H-1,2,4-triazol-3-yl)phenyl)amino)pyridin-3-yl)ethan-1-one]
35 | – | – | – | – | < 5 | CCCC(=O)Nc1cc(Nc2cccc(-c3ncn(C)n3)c2OC)c(C(C)=O)cn1 [Compound 1I]
36 | – | – | – | – | < 5 | COc1c(Nc2cc(Nc3cc(C)ccn3)ncc2C(C)=O)cccc1-c1ncn(C)n1 [Compound 7D]
37 | – | – | – | – | 5 to 50 | COc1c(Nc2cc(Nc3ncccc3F)ncc2C(C)=O)cccc1-c1ncn(C)n1 [Compound 7G]
38 | – | – | – | – | < 5 | COc1c(Nc2cc(Nc3cc(C#N)ccn3)ncc2C(C)=O)cccc1-c1ncn(C)n1 [Compound 7F]
39 | – | – | – | – | < 5 | COc1c(Nc2cc(Nc3cccc(C)n3)ncc2C(C)=O)cccc1-c1ncn(C)n1 [Compound 7J]
40 | – | – | – | – | < 5 | COc1ccnc(Nc2cc(Nc3cccc(-c4ncn(C)n4)c3OC)c(C(C)=O)cn2)c1 [Compound 7E]
41 | – | – | – | – | 5 to 50 | COc1c(Nc2cc(NC(C)=O)ncc2C(C)=O)cccc1-c1ncn(C)n1 [Compound 1G]
42 | – | – | – | – | 50 to 500 | COc1c(Nc2cc(Nc3cnn(C)c3)ncc2C(C)=O)cccc1-c1ncn(C)n1 [Compound 7T]
43 | – | – | – | – | < 5 | COc1c(Nc2cc(Nc3cc(C)ncn3)ncc2C(C)=O)cccc1-c1ncn(C)n1 [Compound 7Q]
44 | 5 to 50 | – | – | – | – | CCC(=O)c1cnc(Nc2cnc(O[C@@H]3CCN(CC)C3)cn2)cc1Nc1cccc(-c2ncn(C)n2)c1OC [Compound 18DDD]
45 | – | – | – | – | < 5 | COC(=O)c1cnc(NC(=O)C2CC2)cc1Nc1cccc(-c2ncn(C)n2)c1OC [Compound 3, methyl 6-(cyclopropanecarboxamido)-4-((2-methoxy-3-(1-methyl-1H-1,2,4-triazol-3-yl)phenyl)amino)nicotinate]
46 | – | – | – | – | 50 to 500 | COc1c(Nc2cc(Nc3ncc(F)cn3)ncc2C(C)=O)cccc1-c1ncn(C)n1 [Compound 7P]
47 | – | – | – | – | 5 to 50 | COc1c(Nc2cc(NC(=O)[C@H]3C[C@H]3F)ncc2C(C)=O)cccc1-c1ncn(C)n1 [Compound 1L]
48 | 5 to 50 | – | – | 0.05 to 0.5 | – | CCC(=O)c1cnc(Nc2ccc(CN3CCN(C)CC3)nn2)cc1Nc1cccc(-c2ncn(C)n2)c1OC [Compound 9PPP]
49 | – | – | – | – | < 5 | COc1c(Nc2cc(NC(=O)C3CC3)ncc2C(C)=O)cccc1-c1ncn(C)n1 [Compound 1A, N-(5-acetyl-4-((2-methoxy-3-(1-methyl-1H-1,2,4-triazol-3-yl)phenyl)amino)pyridin-2-yl)cyclopropanecarboxamide]
50 | 5 to 50 | – | – | – | – | CCC(=O)c1cnc(Nc2cnc(C(F)(F)CN)cn2)cc1Nc1cccc(-c2ncn(C)n2)c1OC [Compound 19A, 1-(6-((5-(2-amino-1,1-difluoroethyl)pyrazin-2-yl)amino)-4-((2-methoxy-3-(1-methyl-1H-1,2,4-triazol-3-yl)phenyl)amino)pyridin-3-yl)propan-1-one]
51 | – | – | – | – | < 5 | COc1c(Nc2cc(Nc3ccc(F)cn3)ncc2C(C)=O)cccc1-c1ncn(C)n1 [Compound 7H]
52 | – | – | – | – | < 5 | COc1c(Nc2cc(Nc3ccccn3)ncc2C(C)=O)cccc1-c1ncn(C)n1 [Compound 7C]
53 | – | – | – | – | < 5 | COc1c(Nc2cc(Nc3ccnc(C)n3)ncc2C(C)=O)cccc1-c1ncn(C)n1 [Compound 7R]
54 | – | – | – | – | < 5 | COc1ccc(Nc2cc(Nc3cccc(-c4ncn(C)n4)c3OC)c(C(C)=O)cn2)nc1 [Compound 7I]

Reference: US20230295119A1, “SUBSTITUTED PYRIDINES FOR THE TREATMENT OF INFLAMMATORY DISEASES” (GOSSAMER BIO SERVICES, INC., priority 2020, published 2023)
